The source made the active and inactive calls. The rule behind the calls is not given here.
Columns and labels:
[1] = target: T1, Serine/threonine-protein kinase Chk1 (Homo sapiens, UniProt O14757)
T1 sequence (O14757 whole entry): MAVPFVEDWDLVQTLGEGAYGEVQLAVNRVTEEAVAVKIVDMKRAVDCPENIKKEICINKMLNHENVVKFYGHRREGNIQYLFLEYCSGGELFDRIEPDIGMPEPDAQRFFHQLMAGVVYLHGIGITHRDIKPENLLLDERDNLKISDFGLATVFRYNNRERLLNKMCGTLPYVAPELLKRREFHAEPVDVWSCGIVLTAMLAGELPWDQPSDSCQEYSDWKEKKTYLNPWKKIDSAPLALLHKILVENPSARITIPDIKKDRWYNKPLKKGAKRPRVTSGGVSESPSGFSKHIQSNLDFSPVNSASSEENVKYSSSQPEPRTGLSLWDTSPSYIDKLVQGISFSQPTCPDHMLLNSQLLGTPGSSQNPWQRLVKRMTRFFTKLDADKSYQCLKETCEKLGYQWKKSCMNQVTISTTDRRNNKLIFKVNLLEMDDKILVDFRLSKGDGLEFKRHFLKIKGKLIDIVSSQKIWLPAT
Description: Inhibition of CHK1 (unknown origin) using peptide substrate incubated for 1 hrs in presence of ATP by fluorescence microplate reader analysis

hERG (KCNH2) = hERG (KCNH2) (Homo sapiens, UniProt Q12809); assay: Inhibition of hERG expressed in HEK293 cells at 10 uM incubated by patch clamp assay relative to control; assay type: toxicity, cell-based; details: HEK293 cells that express hERG
[2] = target: Mast/stem cell growth factor receptor Kit (Homo sapiens, UniProt P10721)
Description: Inhibition of c-kit (unknown origin) using peptide substrate incubated for 1 hrs in presence of ATP by fluorescence microplate reader analysis

[3] = target: T2, Interleukin-1 receptor-associated kinase 4 (Homo sapiens, UniProt Q9NWZ3); assay: Inhibition of IRAK4 (unknown origin) using peptide substrate incubated for 1 hrs in presence of ATP by fluorescence microplate reader
T2 sequence (Q9NWZ3 whole entry): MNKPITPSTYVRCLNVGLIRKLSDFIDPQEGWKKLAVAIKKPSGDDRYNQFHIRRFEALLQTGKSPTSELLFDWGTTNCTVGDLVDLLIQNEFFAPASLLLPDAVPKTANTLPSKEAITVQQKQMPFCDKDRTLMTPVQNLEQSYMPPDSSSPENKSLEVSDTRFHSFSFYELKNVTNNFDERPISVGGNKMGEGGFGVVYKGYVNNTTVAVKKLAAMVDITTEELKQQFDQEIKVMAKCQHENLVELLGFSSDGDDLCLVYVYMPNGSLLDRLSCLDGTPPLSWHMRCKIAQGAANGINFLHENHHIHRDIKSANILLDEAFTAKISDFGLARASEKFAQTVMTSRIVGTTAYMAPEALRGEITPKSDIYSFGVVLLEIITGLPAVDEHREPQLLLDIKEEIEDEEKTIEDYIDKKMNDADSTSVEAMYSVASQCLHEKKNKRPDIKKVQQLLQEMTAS

[4] = target: Ribosomal protein S6 kinase; assay: Inhibition of p70S6K (unknown origin) using peptide substrate incubated for 1 hrs in presence of ATP by fluorescence microplate reader; assay type: protein assay, Homo sapiens
[5] = target: Cyclin-dependent kinase 2 (Homo sapiens, UniProt P24941); assay: Inhibition of CDK2 (unknown origin) incubated for 1 hrs by fluorescence microplate reader
Aurora kinase A = target: T3, Aurora kinase A (Homo sapiens, UniProt O14965); assay: Inhibition of Aurora A (unknown origin) expressed in Escherichia coli using peptide substrate incubated for 1 hrs in presence of ATP by fluorescence microplate reader
T3 sequence (O14965 whole entry): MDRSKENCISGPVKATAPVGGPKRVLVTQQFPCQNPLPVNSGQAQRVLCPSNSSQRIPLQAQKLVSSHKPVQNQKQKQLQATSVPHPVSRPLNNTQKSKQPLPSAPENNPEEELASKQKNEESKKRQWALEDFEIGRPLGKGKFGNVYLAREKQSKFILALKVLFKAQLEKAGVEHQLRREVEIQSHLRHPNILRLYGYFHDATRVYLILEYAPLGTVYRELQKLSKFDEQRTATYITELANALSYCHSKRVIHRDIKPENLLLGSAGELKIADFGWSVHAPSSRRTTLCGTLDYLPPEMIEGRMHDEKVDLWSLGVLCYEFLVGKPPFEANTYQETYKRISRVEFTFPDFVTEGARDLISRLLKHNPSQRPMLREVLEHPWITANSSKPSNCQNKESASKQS

[6] = target: T4, Tyrosine-protein kinase JAK3 (Homo sapiens, UniProt P52333); assay: Inhibition of JAK3 (unknown origin) using peptide substrate incubated for 1 hrs in presence of ATP by fluorescence microplate reader
T4 sequence (P52333 whole entry): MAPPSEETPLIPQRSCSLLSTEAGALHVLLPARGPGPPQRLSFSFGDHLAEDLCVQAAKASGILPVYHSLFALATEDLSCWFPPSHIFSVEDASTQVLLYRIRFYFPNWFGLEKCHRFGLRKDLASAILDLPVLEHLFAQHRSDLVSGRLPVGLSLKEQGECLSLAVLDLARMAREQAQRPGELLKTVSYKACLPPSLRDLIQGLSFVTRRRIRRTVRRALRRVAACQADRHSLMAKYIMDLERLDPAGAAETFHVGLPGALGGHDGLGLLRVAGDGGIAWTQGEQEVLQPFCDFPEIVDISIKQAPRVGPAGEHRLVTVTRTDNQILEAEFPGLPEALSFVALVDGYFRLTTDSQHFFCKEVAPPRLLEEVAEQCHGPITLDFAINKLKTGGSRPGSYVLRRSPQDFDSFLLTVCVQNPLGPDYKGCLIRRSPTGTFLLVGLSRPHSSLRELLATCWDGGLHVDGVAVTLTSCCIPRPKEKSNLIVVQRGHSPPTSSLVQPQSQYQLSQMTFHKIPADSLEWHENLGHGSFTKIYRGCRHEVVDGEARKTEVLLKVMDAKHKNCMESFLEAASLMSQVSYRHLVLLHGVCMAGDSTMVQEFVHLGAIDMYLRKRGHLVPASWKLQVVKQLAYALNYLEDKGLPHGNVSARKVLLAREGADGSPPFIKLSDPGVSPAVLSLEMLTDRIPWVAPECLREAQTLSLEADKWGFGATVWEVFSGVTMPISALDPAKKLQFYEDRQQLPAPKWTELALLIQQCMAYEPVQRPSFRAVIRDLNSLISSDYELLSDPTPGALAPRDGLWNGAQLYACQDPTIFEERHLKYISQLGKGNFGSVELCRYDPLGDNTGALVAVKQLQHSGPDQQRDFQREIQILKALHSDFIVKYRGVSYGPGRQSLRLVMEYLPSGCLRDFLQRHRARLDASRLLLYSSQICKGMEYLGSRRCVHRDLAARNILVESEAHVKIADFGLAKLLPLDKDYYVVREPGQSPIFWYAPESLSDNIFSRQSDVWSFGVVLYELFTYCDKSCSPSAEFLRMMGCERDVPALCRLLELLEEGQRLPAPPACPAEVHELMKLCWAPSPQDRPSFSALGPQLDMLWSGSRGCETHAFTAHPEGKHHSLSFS

[7] = target: Tyrosine-protein kinase BTK (Homo sapiens, UniProt Q06187); assay: Inhibition of BTK (unknown origin) using peptide substrate incubated for 1 hrs in presence of ATP by fluorescence microplate reader
[8] = target: Epidermal growth factor receptor (Homo sapiens, UniProt P00533); assay: Inhibition of EGFR (unknown origin) using peptide substrate incubated for 1 hrs in presence of ATP by fluorescence microplate reader
[9] = target: Serine/threonine-protein kinase pim-1 (Homo sapiens, UniProt P11309); assay: Inhibition of PIM1 (unknown origin) using peptide substrate incubated for 1 hrs in presence of ATP by fluorescence microplate reader
[10] = target: T5, Serine/threonine-protein kinase 17B (Homo sapiens, UniProt O94768); assay: Inhibition of DRAK2 (unknown origin) expressed in Escherichia coli incubated for 2 hrs by ADP-Glo assay
T5 sequence (O94768 whole entry): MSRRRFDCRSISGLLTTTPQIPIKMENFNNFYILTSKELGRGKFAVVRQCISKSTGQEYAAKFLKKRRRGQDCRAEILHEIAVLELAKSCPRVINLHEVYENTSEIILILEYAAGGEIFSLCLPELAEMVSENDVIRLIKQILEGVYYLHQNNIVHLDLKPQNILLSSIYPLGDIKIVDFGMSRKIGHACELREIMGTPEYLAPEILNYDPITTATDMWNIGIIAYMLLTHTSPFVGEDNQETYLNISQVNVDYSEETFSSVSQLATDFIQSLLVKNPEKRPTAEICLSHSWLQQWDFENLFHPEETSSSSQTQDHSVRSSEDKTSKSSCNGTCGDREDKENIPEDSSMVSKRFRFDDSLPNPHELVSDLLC

[11] = target: T6, Serine/threonine-protein kinase Chk1 (Homo sapiens) (UniProt O14757); details: MV4-11, dose 50-200 nM
T6 sequence (whole entry): T1 sequence (O14757 whole entry)
Description: Inhibition of CHK1 phosphorylation at S296 residue in human MV4-11 cells at 50 to 200 nM by Western blot analysis

[12] = target: T6, Serine/threonine-protein kinase Chk1 (Homo sapiens); details: MV4-11, dose 50-200 nM; remark: listed apart in the source
Description: Inhibition of CHK1 in human MV4-11 cells assessed as decrease in c-Myc protein expression level at 50 to 200 nM by Western blot analysis

Chain of Mast/stem cell growth factor receptor Kit (P10721 whole entry): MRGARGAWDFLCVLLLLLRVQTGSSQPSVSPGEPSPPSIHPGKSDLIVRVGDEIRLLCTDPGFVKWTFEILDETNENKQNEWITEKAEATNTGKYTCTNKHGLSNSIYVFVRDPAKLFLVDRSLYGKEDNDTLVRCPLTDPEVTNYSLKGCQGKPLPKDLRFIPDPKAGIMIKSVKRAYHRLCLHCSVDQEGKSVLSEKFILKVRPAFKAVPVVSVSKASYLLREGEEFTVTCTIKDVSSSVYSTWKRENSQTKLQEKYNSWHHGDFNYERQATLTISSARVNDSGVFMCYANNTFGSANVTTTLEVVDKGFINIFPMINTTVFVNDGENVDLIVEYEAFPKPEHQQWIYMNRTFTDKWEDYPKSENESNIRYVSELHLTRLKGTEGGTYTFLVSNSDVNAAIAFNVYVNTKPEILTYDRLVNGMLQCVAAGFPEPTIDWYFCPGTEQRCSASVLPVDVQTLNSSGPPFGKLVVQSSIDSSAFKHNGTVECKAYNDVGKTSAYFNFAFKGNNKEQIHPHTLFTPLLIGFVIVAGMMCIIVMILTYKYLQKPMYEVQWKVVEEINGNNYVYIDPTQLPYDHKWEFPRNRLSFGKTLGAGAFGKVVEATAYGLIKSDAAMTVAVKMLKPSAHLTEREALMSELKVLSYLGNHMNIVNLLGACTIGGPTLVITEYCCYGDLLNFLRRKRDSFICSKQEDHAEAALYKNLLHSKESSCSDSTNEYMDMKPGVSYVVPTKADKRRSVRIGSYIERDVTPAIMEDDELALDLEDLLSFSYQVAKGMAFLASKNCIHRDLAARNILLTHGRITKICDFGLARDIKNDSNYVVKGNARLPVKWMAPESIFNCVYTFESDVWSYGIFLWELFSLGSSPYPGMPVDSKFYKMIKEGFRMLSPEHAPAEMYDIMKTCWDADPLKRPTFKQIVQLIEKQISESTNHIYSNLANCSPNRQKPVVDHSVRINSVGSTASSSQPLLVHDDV
Chain of hERG (KCNH2) (Q12809 whole entry): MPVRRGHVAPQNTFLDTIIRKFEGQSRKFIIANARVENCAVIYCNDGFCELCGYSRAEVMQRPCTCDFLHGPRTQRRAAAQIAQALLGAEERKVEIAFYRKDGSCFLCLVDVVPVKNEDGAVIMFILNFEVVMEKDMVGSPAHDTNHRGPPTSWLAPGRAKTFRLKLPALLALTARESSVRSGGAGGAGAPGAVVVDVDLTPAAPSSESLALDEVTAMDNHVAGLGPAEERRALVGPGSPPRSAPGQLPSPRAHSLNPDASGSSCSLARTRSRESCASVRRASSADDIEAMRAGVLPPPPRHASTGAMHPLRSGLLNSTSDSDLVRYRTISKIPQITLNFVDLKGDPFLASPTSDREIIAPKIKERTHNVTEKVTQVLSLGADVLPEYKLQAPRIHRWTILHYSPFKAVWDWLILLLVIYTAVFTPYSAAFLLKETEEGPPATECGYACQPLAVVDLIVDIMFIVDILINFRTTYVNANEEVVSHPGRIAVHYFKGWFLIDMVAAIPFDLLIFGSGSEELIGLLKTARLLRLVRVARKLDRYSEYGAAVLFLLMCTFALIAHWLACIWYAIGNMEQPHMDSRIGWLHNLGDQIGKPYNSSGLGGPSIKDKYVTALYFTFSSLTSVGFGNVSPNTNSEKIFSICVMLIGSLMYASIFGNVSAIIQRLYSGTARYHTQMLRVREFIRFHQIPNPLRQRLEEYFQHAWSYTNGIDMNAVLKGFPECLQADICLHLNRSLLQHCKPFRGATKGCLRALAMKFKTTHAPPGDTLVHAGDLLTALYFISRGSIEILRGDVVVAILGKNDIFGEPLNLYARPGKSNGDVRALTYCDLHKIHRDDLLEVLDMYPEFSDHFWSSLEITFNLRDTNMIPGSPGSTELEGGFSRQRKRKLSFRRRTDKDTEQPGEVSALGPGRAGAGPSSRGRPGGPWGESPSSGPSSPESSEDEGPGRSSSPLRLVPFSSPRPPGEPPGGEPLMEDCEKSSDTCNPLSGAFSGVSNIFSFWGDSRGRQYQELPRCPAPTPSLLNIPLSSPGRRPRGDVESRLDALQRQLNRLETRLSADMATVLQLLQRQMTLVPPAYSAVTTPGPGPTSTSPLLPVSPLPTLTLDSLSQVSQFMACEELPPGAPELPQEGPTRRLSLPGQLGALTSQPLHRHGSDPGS
Chain of Serine/threonine-protein kinase pim-1 (P11309 whole entry): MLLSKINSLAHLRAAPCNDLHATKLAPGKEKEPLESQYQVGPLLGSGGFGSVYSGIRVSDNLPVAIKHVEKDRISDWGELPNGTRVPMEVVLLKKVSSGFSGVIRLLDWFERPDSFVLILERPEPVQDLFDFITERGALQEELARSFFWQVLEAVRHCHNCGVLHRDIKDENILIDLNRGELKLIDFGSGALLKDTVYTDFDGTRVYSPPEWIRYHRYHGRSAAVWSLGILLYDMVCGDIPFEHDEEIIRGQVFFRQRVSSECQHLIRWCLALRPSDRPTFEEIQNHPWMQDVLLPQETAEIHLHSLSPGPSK
Chain of Tyrosine-protein kinase BTK (Q06187 whole entry): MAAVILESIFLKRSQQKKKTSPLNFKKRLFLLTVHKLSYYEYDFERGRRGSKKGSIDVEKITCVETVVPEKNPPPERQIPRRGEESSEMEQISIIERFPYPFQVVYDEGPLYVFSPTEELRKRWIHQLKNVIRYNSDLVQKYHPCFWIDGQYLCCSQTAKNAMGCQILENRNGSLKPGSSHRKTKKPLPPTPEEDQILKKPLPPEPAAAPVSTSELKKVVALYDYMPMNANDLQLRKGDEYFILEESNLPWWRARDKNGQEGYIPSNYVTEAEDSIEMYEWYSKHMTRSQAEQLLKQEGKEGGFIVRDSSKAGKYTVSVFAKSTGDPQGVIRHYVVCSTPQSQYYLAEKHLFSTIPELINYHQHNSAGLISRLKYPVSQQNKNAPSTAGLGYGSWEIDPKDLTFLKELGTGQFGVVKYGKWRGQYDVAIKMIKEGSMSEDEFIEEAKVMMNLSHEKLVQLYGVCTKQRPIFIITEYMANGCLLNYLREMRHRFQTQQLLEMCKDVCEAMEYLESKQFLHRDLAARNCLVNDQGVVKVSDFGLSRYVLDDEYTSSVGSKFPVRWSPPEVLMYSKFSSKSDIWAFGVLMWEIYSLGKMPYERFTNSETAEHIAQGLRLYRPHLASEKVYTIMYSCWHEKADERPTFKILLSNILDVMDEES
Chain of Epidermal growth factor receptor (P00533 whole entry): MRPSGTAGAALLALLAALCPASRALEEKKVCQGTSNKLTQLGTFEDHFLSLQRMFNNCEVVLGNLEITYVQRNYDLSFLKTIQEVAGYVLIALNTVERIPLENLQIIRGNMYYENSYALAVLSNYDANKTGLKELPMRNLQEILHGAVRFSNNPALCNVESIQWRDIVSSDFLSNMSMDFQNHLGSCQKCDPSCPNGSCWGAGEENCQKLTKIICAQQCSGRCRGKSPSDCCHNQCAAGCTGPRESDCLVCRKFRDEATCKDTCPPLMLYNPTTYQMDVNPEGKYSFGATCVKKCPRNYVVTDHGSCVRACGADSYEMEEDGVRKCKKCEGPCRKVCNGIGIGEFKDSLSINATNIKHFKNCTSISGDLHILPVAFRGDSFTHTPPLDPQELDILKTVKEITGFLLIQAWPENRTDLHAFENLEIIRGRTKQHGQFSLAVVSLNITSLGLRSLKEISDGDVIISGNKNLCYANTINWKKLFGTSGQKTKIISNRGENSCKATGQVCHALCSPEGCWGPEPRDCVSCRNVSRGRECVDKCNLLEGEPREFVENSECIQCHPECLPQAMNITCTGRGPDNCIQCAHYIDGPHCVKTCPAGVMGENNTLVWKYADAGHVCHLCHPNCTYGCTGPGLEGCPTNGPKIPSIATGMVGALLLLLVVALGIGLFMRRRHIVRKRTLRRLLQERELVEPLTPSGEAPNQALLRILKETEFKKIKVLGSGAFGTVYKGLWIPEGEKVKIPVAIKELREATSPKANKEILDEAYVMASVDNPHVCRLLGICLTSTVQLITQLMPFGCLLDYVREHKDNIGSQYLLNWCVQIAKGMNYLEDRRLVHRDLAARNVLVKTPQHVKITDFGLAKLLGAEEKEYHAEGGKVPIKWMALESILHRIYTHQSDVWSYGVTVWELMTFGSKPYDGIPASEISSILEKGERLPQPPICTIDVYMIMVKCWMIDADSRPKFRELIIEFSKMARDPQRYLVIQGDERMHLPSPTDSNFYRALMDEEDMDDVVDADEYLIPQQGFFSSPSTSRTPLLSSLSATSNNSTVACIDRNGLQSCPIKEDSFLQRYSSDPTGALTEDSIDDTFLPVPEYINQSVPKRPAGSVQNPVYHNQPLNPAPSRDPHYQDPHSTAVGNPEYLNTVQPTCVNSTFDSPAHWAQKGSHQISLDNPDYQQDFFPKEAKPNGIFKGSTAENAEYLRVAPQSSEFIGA

SMILES | IC50 [1] [nM] | inhibition at 10 µM (hERG (KCNH2)) [%] | IC50 [2] [µM] | also measured
NCCCNc1nc(Nc2ccc3c(c2)CCN(S(=O)(=O)C2CCCCC2)C3)ncc1C(F)(F)F | 100 | – | – | –
NCCCNc1nc(Nc2ccc3c(c2)CCC3=O)ncc1C(F)(F)F | 144 | – | – | –
CC(=O)c1ccc(Nc2ncc(C(F)(F)F)c(NCCCN)n2)cc1 | 89.3 | – | – | –
NCCCNc1nc(Nc2ccc3c(c2)CCS3(=O)=O)ncc1C(F)(F)F | 104 | – | – | –
CS(=O)(=O)N1CCCc2cc(Nc3ncc(C(F)(F)F)c(NCCCN)n3)ccc21 | 28.9 | 64.2 | 9.81 | –
CS(=O)(=O)N1CCc2cc(Nc3ncc(C(F)(F)F)c(NCCCN)n3)ccc2C1 | 25.6 | 36.1 | 10.5 | IC50 [3]: 865 nM; IC50 [4]: 834.85 nM; IC50 [5]: 833 nM; IC50 (Aurora kinase A): 1860 nM; IC50 [6]: > 10 µM; IC50 [7]: > 10 µM; IC50 [8]: > 10 µM; IC50 [9]: > 10 µM; IC50 [10]: > 10 µM; inhibition [11]: Active; inhibition [12]: Active
NCCCNc1nc(Nc2ccc3c(c2)CCN(S(=O)(=O)c2ccccc2)C3)ncc1C(F)(F)F | 133 | – | – | –
NCCCNc1nc(Nc2ccc3c(c2)OCO3)ncc1C(F)(F)F | 237 | – | – | –
CS(=O)(=O)N1CCc2cc(Nc3ncc(C(F)(F)F)c(NCCCN)n3)ccc21 | 32.5 | 39.5 | 12.3 | –
NCCCNc1nc(Nc2ccc3c(c2)CCCN3S(=O)(=O)c2ccccc2)ncc1C(F)(F)F | 166 | – | – | –
CS(=O)(=O)N1CCOc2cc(Nc3ncc(C(F)(F)F)c(NCCCN)n3)ccc21 | 183 | – | – | –
NCCCNc1nc(Nc2ccc3c(c2)COC3=O)ncc1C(F)(F)F | 93.6 | – | – | –
CS(=O)(=O)N1Cc2ccc(Nc3ncc(C(F)(F)F)c(NCCCN)n3)cc2C1 | 35.2 | 23.2 | 21.3 | –
NCCCNc1nc(Nc2ccc3c(c2)CCCC3=O)ncc1C(F)(F)F | 38.6 | 76.1 | 10.9 | –
